In ChEMBL document CHEMBL1201862, “PubChem BioAssay data set” (2004):
Activity calls are given as the source filed them.

What was measured:
Protein Tat = target: T1, Protein Tat (Human immunodeficiency virus type 1 group M subtype B (isolate HXB2)(HIV-1), UniProt P04608); format: functional;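 note: tat binding to TAR RNA read out by fluorescence polarization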
T1 sequence (P04608 whole entry): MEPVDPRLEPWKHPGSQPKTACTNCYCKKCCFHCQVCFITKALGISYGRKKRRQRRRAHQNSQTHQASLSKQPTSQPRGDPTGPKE

[1] = viability loss in THP-1 monocytes – THP-1 cells, cytotoxicity control for Vif-APOBEC3G degradation inhibitor project, dose response (AID 1117359); format: functional; settings: THP-1
SN12K1 = test: cells; format: functional; settings: Homo sapiens
Caspase-3 = target: T2, Caspase-3 (Homo sapiens, UniProt P42574); format: functional;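 note: Dose-response selectivity test against caspase-3 for candidate inhibitors of sentrin-specific proteases (SENPs)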
T2 sequence (P42574 whole entry): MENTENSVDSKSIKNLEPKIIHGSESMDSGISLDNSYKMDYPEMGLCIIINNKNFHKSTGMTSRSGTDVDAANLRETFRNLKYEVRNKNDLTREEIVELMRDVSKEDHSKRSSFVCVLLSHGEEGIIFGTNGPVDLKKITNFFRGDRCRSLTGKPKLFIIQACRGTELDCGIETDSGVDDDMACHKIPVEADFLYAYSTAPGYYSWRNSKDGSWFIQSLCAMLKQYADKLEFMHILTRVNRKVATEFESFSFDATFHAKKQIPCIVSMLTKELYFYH

[2] = target: T3, Sentrin-specific protease 7 (Homo sapiens, UniProt Q9BQF6); format: functional;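 note: Luminescence-based dose-response confirmation of ultra-high-throughput screening hits, measuring inhibition of SENP7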
T3 sequence (Q9BQF6 whole entry): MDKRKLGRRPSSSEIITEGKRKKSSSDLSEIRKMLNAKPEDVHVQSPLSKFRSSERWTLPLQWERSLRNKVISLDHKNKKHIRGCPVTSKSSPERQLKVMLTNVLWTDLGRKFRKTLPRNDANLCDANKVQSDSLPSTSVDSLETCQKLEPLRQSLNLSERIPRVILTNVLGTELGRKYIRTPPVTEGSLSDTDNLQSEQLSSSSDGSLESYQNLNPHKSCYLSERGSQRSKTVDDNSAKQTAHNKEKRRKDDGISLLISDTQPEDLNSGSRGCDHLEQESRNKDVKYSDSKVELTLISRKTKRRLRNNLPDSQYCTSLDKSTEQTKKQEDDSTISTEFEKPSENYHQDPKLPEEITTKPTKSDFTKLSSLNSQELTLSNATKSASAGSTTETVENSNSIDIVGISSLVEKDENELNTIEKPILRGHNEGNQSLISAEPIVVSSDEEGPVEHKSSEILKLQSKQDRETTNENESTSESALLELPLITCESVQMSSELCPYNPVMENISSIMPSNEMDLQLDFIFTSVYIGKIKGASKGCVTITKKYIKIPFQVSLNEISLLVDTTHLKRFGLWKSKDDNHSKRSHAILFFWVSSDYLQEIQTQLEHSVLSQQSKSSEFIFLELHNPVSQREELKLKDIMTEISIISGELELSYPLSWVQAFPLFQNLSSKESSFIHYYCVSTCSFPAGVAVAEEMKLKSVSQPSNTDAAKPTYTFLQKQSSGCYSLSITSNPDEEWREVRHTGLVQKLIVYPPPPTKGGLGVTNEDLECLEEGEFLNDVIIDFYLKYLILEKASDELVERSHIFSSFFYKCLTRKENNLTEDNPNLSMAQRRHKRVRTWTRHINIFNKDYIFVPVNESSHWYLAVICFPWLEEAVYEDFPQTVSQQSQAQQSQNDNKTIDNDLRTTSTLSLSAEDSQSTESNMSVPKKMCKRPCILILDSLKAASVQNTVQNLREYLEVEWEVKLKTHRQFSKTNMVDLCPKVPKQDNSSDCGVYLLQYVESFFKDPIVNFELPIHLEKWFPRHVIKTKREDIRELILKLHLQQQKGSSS

[3] = target: T4, Sentrin-specific protease 6 (Homo sapiens, UniProt Q9GZR1); format: functional;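 note: Luminescence-based dose-response confirmatory assay of SENP6 inhibition, following up an ultra-high-throughput screen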
T4 sequence (Q9GZR1 whole entry): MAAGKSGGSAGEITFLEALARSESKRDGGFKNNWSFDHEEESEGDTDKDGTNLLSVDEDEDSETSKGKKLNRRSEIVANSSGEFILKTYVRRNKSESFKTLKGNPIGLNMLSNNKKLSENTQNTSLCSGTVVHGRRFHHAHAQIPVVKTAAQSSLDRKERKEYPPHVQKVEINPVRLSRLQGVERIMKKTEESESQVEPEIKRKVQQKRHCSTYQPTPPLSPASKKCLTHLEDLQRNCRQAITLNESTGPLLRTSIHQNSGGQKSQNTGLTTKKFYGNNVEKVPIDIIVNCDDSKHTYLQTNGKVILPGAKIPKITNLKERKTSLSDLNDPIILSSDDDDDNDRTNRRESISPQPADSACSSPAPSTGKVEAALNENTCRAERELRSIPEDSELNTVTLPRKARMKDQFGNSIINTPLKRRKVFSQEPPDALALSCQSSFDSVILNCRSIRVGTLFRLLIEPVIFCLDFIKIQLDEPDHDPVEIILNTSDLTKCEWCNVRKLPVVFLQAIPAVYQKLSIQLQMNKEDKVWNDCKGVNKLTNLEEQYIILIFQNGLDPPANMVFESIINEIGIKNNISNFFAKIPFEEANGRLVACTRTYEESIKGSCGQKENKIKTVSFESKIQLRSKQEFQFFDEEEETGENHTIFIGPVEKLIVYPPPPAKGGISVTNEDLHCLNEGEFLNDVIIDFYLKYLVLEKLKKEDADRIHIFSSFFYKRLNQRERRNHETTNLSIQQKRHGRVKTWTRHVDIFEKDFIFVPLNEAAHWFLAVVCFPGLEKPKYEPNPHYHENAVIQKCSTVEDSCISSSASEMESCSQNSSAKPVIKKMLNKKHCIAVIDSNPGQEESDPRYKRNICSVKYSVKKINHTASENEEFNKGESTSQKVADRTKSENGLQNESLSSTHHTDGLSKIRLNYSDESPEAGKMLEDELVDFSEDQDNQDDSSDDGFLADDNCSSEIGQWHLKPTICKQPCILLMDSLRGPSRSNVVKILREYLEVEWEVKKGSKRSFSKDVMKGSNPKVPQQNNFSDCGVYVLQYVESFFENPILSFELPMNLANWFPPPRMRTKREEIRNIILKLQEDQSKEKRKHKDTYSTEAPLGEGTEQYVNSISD

[4] = target: T5, Sentrin-specific protease 8 (Homo sapiens, UniProt Q96LD8); format: functional;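 note: luminescence read-out of SENP8 inhibition, dose-response confirmation following an ultra-high-throughput screen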
T5 sequence (Q96LD8 whole entry): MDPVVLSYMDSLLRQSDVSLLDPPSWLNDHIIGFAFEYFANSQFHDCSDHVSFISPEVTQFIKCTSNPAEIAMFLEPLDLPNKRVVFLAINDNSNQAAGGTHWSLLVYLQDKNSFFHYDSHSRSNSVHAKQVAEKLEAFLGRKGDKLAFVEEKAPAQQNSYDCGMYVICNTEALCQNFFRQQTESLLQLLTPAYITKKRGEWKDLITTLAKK

[5] = P. falciparum Dd2 growth inhibitors, dose response, SYBR Green, cherry-picked samples (AID 1159567); format: functional, cell-based
[6] = toxicity to human hepatoma HepG2 cells – cell-based, cherry-picked samples, cytotoxicity control, dose response (AID 1159577); format: functional
[7] = target: T6, Corticotropin-releasing factor receptor 2/Corticotropin-releasing factor-binding protein (Homo sapiens, UniProt P24387+Q13324); test: Dose Response confirmation of uHTS hits for small molecule antagonists of the CRF-binding protein and CRF-R2 receptor complex.; format: functional; settings: read-out: IC50_Mean
T6 sequence (Q13324 whole entry): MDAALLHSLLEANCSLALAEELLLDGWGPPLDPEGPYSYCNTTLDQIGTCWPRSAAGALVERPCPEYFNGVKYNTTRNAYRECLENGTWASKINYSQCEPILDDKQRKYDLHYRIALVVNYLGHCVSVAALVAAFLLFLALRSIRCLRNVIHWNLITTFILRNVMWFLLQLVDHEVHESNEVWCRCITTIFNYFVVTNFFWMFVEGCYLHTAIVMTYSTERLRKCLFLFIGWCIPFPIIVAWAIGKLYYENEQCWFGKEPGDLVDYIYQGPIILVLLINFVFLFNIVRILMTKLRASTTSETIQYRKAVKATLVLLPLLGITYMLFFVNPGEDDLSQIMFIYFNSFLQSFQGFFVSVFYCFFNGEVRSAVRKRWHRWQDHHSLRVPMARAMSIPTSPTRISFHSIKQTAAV
T6 sequence (P24387 whole entry): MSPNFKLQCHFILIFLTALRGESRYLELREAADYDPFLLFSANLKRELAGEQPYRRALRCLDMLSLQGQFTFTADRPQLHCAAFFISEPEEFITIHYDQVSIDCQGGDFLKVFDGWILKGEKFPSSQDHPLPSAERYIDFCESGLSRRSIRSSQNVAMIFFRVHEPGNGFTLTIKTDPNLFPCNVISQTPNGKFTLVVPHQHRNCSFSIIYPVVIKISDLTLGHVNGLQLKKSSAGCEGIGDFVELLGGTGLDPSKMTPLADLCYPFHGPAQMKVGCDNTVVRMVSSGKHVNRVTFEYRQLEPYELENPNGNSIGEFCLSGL

[8] = target: T6, Corticotropin-releasing factor receptor 2/Corticotropin-releasing factor-binding protein; test: activators of CRF receptor 2 with binding protein – uHTS hits, confirmation (AID 602473); format: functional; settings: read-out: EC50_Mean
[9] = blockers of CRF-binding protein–CRF-R2 complex – cell-based, uHTS hits, 384-well, dose response (AID 651639); format: functional, Homo sapiens; settings: read-out: IC50_Mean
[10] = blockers of HIV-1 envelope-mediated cell-cell fusion – cherry-pick, dose response (AID 652057); format: functional, cell-based
[11] = viability loss in CEM21 cells – cell-based, CellTiter-Glo luminescence, cherry-picked, cytotoxicity control for viral fusion inhibitor project, dose response (AID 652042); format: functional;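 note: potency for signal decrease meaning cytotoxicity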
[12] = blockers of HIV-1 ZM109 envelope-driven cell-cell fusion – HeLa effector, CEM target cells, luciferase, cherry-pick, dose response (AID 652058); format: functional, cell-based;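 note: luciferase signal from HIV-1 Env mediated cell-cell fusion of effector and target cells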
[13] = off-target signal loss in HeLa-CEM21 co-culture – HeLa F-luc CTL cells, cherry-picked, counter-screen for HIV-1 Env fusion inhibitor project, dose response (AID 652040); format: functional, cell-based;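 note: potency for signal decrease marking cytotoxic or nonspecific inhibition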
[14] = HIV-1 AD8 envelope cell-cell fusion blockers – cherry-pick, dose response (AID 652062); format: functional, cell-based;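 note: luciferase signal from cell-cell fusion driven by HIV-1 clade B AD8 Env; potency is for inhibitors of fusion seen as a drop in luminescence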
cells = format: functional
[15] = viability of uninfected HEp-2 cells – cell-based, HTS, cytotoxicity control for RSV inhibitor project, dose response (AID 2410); format: functional; settings: human respiratory syncytial virus
[16] = Trypanosoma cruzi growth suppression in host cells – NIH3T3 host cells, beta-gal luminescence, confirmation (AID 2044); format: functional, cell-based;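 note: intracellular parasites grown in NIH/3T3 mouse fibroblasts as host cells; luminescent beta-galactosidase reporter signal from transgenic T. cruzi replicating inside host cells; inhibitors lower the luminescence signal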
[17] = NIH3T3 cell viability loss – ATP luminescence, mouse fibroblasts, counter-screen, dose response (AID 2010); format: functional, cell-based;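 note: cells exposed to compound for about 90 hours before reading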
Cytochrome P450 3A4 = Cytochrome P450 3A4 (Homo sapiens, UniProt P08684);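 note: CYP3A4 tested as one member of a cytochrome P450 panel screen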
Sequence of Cytochrome P450 3A4 (P08684 whole entry): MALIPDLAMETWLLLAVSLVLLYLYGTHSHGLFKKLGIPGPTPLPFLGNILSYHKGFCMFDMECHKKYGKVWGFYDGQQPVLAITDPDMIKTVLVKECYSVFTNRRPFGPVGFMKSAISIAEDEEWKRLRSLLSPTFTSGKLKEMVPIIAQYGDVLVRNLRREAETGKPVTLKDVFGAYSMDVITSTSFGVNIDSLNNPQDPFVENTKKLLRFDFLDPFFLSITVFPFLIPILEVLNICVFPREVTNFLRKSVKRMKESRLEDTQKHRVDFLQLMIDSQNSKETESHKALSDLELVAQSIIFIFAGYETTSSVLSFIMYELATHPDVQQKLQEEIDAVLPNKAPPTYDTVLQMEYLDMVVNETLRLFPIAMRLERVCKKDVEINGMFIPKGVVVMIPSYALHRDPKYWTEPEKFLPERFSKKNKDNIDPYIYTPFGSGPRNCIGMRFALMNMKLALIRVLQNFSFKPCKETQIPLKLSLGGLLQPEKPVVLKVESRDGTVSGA

CC(C)(C)NC(=O)/C(=C/c1ccco1)c1ccccc1
IC50 (Protein Tat): > 100 µM (inconclusive)

CS(=O)(=O)c1ccc(C(=O)Nc2nc(-c3ccco3)c(-c3ccco3)s2)cc1
CC50 [1]: > 40 µM (active)

CN1CCc2[nH]c3ccccc3c2C1
GI50 (SN12K1): > 100 µM (inactive)

Cn1c(=O)c2ncn(CC(=O)Nc3cccc(-c4nc5ccccc5s4)c3)c2n(C)c1=O
IC50 (Caspase-3): 21.4 µM (active)
IC50 [2]: 15.6 µM (active)
IC50 [3]: 23.4 µM (active)
IC50 [4]: 26.1 µM (active)

CO[C@H]1CN(C)C(=O)c2cc(NC(=O)c3ccc(-c4ccccc4)cc3)ccc2OC[C@@H](C)NC[C@H]1C
AC50 [5]: 5.5 µM (active)
AC50 [6]: 19.8 µM (active)

CN(C)c1cccc(C(=O)OCC(=O)Nc2ccccc2Sc2ccccc2)c1
IC50 [7]: 13.1 µM (active)
EC50 [8]: > 53 µM (inactive)
IC50 [9]: > 20 µM (inactive)

Cc1cc(N2CCCCC2)n2ncc(-c3ccccc3)c2n1
IC50 (Caspase-3): 30.1 µM (active)
IC50 [2]: 6.65 µM (active)
IC50 [3]: 13.8 µM (active)
IC50 [4]: 12.4 µM (active)

O=C(Nc1ccc(-c2ccccc2)cc1)[C@@H]1[C@@H](CO)[C@@H]2Cn3c(cccc3=O)[C@@H]2N1CC1CCCCC1
AC50 [5]: 3.64 µM (active)
AC50 [6]: > 39 µM (inactive)

COC(=O)[C@]12C[C@H](CC(=O)NCc3ccccc3)C(=O)N(CCC3=CCCCC3)C1=C[C@H](C(C)(C)C)O[C@@H]2C
AC50 [10]: 1.76 µM (active)
AC50 [11]: 32.7 µM (active)
AC50 [12]: 3.2 µM (active)
AC50 [13]: 2.75 µM (active)
AC50 [14]: 4.31 µM (active)

Cc1cccc(-c2cc3nc(-c4ccccc4)cc(O)n3n2)c1
IC50 (Caspase-3): 3.86 µM (active)
IC50 [2]: 2.94 µM (active)
IC50 [3]: 3.88 µM (active)
IC50 [4]: 2.01 µM (active)

CC(C)=C1C2CCC1C(C(=O)Nc1sc(C)c(-c3ccc(C(C)C)cc3)c1C(N)=O)C2C(=O)O (stereo unspecified)
IC50 [7]: 5.03 µM (active)
EC50 [8]: 15.9 µM (active)
IC50 [9]: 18.8 µM (active)

CN(C(=O)c1ccccc1)c1nc2ccccc2s1
IC50 (Caspase-3): 15.6 µM (active)
IC50 [2]: 6.81 µM (active)
IC50 [3]: 21.1 µM (active)
IC50 [4]: 50.4 µM (active)

Cc1cccc(C)c1NC(=O)CCS(=O)(=O)c1cccc2nsnc12
IC50 (Protein Tat): > 100 µM (active)

C[C@H](CO)N1C[C@H](C)[C@@H](CN(C)Cc2cccnc2)Oc2cc(/C=C/c3ccccc3)ccc2S1(=O)=O
AC50 [5]: 4.03 µM (active)
AC50 [6]: > 39 µM (inactive)

CCCn1c(CNc2ccccc2O)nc2ccccc21
IC50 (cells): 5.79 µM (active)
IC50 (Protein Tat): > 100 µM (active)

Cc1cc(C(F)(F)F)n(-c2nc(C(=O)N/N=C/c3ccc(F)cc3)cs2)n1
IC50 [7]: 10.7 µM (active)
EC50 [8]: > 53 µM (inactive)
IC50 [9]: > 20 µM (inactive)

CCOC(=O)N1CCC(NC(=O)c2ccc(OC)c(CN3CC(=O)N4CCCC4C3=O)c2)CC1 (stereo unspecified)
IC50 (Protein Tat): > 100 µM (inconclusive)

CCOC(=O)C1=C(C)N=C2c3ccccc3C(=O)C2C1c1ccc(Cl)cc1 (stereo unspecified)
CC50 [15]: 28.7 µM (active)
EC50 [16]: 2.06 µM (active)
EC50 [17]: 29.9 µM (active)
AC50 [10]: 12 µM (active)
AC50 [11]: 55.8 µM (active)
AC50 [12]: < 0.26 µM (active)
AC50 [13]: 16.9 µM (active)
AC50 (Cytochrome P450 3A4): inconclusive
